We go through six molecules from patent publication US20260248763A1 (BIO GENUINE (SHANGHAI) BIOTECH CO., LTD, priority 2023, published 2026).

Molecules are shown by their SMILES. Read-outs that look alike come from different tables or passages of the source.

For one data set, the target named is T1, OTR (Homo sapiens, UniProt P30559).
T1 construct: expressed in transfected cells; host or cells: OTR/HEK293 stably transfected cell line
T1 sequence (P30559 1-389): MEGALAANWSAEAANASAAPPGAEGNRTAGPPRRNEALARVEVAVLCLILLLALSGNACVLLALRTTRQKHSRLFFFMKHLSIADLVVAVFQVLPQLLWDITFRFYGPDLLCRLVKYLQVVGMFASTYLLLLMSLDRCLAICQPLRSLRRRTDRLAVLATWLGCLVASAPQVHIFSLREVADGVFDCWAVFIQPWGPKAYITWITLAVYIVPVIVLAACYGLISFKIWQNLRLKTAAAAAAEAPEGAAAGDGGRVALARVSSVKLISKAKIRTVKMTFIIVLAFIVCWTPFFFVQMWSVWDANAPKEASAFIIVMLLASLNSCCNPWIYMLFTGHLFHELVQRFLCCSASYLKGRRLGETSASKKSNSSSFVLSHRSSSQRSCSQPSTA
Kind of data set: Ca2+ mobilization in cells stably expressing OTR (FLIPR, antagonist mode). In kind it is cell-based. The settings on record: OTR/HEK293 stably transfected cell line. The essentials: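 Antagonist mode: test compounds in 10-point 3-fold series were added on FLIPR to Fluo-4-loaded HEK293 cells stably expressing OTR, followed by reference agonist at its EC80, determined beforehand. The Max-Min calcium fluorescence response was fitted in Prism.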
A general note: Calcium flux is commonly read through the fluorescence of an indicator in the cells.

Another data set concerns the target T2, V1aR (Homo sapiens, UniProt P37288).
T2 construct: expressed in transfected cells; host or cells: V1a-CHO stably transfected cell line
Kind of data set: Ca2+ mobilization in cells stably expressing V1aR (FLIPR, antagonist mode). In kind it is cell-based. The settings on record: V1a-CHO stably transfected cell line. The source says:
Test Example 2. Determination of the Effect of the Compound of the Present Disclosure on Ca^2+ Mobilization in Cells Stably Expressing V1aR
To measure the antagonistic effect of the compound of the present disclosure on V1aR activity expressed in the V1a-CHO stably transfected cell line.
• F-12 (Hyclone, SH30026.01) • FLIPR CALCIUM 6 ASSAY KIT (Molecul Device, R8191) • Fetal Bovine Serum (FBS) (AusGeneX, FBS500-S) • Hygromycin B (Solarbio, H8080-1g) • DMSO (Sigma, D4540) • HBSS (Gibco 14025-092) • Probenecid (MCE, HY—B0545) • 0.36 mL 96 Round V-bottom Deep Well Plates for Laboratory (Biaosen P-0.36-BSA-96) • 384-well conical bottom polypropylene plate (Nunc, 264573) • Corning® 384-well Flat Clear Bottom Black Polystyrene TC-treated Microplates (Corning 3764)
• Biological safety cabinet (ECSO, AC2-6S1-TC) • Carbon dioxide cell incubator (ECSO, CCI-170B-8) • Inverted microscope (Olympus, CKX53) • Microplate low-speed centrifuge (Xiangzhi, TD5B) • FLIPR® Penta (Molecul Device, 5.0)
• 1. Cell plating: V1a-CHO cells were digested and harvested, resuspended and counted, and then inoculated into a 384-well cell plate at a density of: 1.2×10^4 cells/25 μL/well. The cell plate was then incubated in an incubator at 37° C. with 5% CO2 for about 16-20 h. • 2. The next day: after preparing Assay Buffer, 20× Component A was thawed to room temperature, diluted with Assay buffer to 1× loading buffer, and placed at room temperature for later use. • 3. The medium was removed from the cell plate, and 40 μL of 1× loading buffer was quickly added to each well. After centrifugation, the cell plate was incubated at 37° C. in the dark for 120 minutes. • 4. The serially diluted positive compound, serially diluted test compound, and agonist working solution were formulated. After mixing the serially diluted positive compound/serially diluted test compound with the agonist at a 1:1 ratio, 20 μL per well was transferred to a 384-well compound source plate. • 5. The cell plate, agonist source plate, and pipette tips were placed into their respective positions in the FLIPR instrument. Using FLIPR Tetra, 10 μL of the diluted agonist from Step 4 was added to each test well, and the data were collected at a wavelength of 515 nm-575 nm. • 6. The signal values were plotted against the compound concentrations, and the curve fitting and IC50 calculation were performed using the nonlinear regression method of GraphPad Prism software.

Data set [1] is described as follows: Pharmacokinetic determination in SD rats. In kind it is in vivo. Particulars: rat, female SD rats, plasma; for AUC(0-t): read-out: Area under the curve AUC0-t; for half-life: read-out: Half-life T1/2 (converted). How it is done:
Test Example 3: Pharmacokinetic Determination in SD Rats
In this study, female SD rats were selected as test animals. The LC/MS/MS method was used to quantitatively determine the plasma drug concentrations of the test compounds at different time points after intravenous injection (2 mg/kg) or oral administration (5 mg/kg) in rats, so as to evaluate the pharmacokinetic profile of the test drugs in rats.
(§1) The example compounds of the present disclosure, made in house.
(§2) SD rats (female, 180-220 g, 6-8 weeks old, purchased from Beijing Vital River Laboratory Animal Technology Co., Ltd., with animal production license number SCXK (Beijing) 2021-0006).
Vehicle for intravenous administration: 5% DMSO+10% Solutol+85% Saline.
Vehicle for oral administration: 5% DMSO+95% PEG400.
The test compound, formulated as a clear solution or suspension, was administered to overnight-fasted SD rats via tail vein injection or oral gavage. For intravenous administration, blood samples (0.25 mL) were collected via jugular vein puncture at pre-dose (0 h) and 0.083, 0.25, 0.5, 1, 2, 4, 6, 8, and 24 h post-dose. The samples were placed into sodium heparin anticoagulant tubes, and the mixture was vortexed thoroughly and centrifuged at 6,000 rpm for 3 minutes at 4° C. For oral gavage, blood samples were collected via jugular vein puncture at pre-dose (0 h) and 0.083, 0.25, 1, 2, 4, 6, 8, and 24 h post-dose. The samples were placed into sodium heparin anticoagulant tubes, and the mixture was vortexed thoroughly and centrifuged at 6,000 rpm for 3 minutes. Plasma drug concentrations were determined using the LC-MS/MS method, and the relevant pharmacokinetic parameters were calculated using the non-compartmental model with linear-log trapezoidal method in Phoenix WinNonlin 8.2.0 pharmacokinetic software.

Data set [2] is described as follows: Blood-brain distribution determination in SD rats. It counts as in vivo. The settings on record: female SD rats, oral, 10 mg/kg. How it is done:
Test Example 4: Blood-Brain Distribution Determination in SD Rats
In this study, female SD rats were selected as test animals. The LC/MS/MS method was used to quantitatively determine the drug concentrations of the test compounds in plasma and brain tissues at three different time points (0.5 h, 2 h, 4 h or 6 h) after oral administration (5 mg/kg or 10 mg/kg) in rats, so as to evaluate the pharmacokinetic profile of the test drugs in rats.
as §1, §2
Vehicle for oral administration: 5% DMSO+95% PEG400 or a mixture of (50% Labrasol+50% Water).
The test compound, formulated as a clear solution or suspension, was administered to overnight-fasted SD rats via oral gavage. For oral gavage, blood samples (0.25 mL) were collected via jugular vein puncture at pre-dose (0 h) and 0.5 h, 2 h, 4 h or 6 h post-dose. The samples were placed into sodium heparin anticoagulant tubes. After collection, the blood samples were placed on wet ice and centrifuged within 1 hour to separate the plasma. The separated plasma was stored frozen in a −80° C. freezer. After blood collection, the animals were euthanized by cervical dislocation. The whole brain tissue was dissected out. The collected brain tissue was first rinsed with physiological saline, blotted dry with absorbent paper, and then stored frozen in a −80° C. freezer. Prior to analysis, the brain tissue samples and plasma samples were taken out from the −80° C. freezer. After the brain tissue samples were completely thawed, a given amount of brain tissue was weighed, and 50% methanol/water was added for homogenization. Drug concentrations in plasma and brain tissues were determined using the LC-MS/MS method, and the relevant pharmacokinetic parameters were calculated using the non-compartmental model with linear-log trapezoidal method in Phoenix WinNonlin 8.2.0 pharmacokinetic software.

T2 sequence (P37288 whole entry, species assumed): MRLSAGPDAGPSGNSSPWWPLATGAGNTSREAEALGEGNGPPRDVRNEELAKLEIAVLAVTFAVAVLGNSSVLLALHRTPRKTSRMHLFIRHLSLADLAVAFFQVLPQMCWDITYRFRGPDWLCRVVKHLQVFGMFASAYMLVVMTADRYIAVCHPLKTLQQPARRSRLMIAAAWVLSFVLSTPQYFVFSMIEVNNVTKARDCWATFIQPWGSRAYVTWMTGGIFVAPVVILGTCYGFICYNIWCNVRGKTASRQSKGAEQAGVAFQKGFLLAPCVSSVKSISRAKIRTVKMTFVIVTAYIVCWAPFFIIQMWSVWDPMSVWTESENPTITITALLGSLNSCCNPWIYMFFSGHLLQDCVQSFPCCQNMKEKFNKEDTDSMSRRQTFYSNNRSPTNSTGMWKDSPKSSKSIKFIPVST

What is called IC50 is the midpoint of a concentration-inhibition curve. The low end stands for greater potency, the high end for weaker potency. Take `CO/N=C1/C[C@@H](CO)N(C(=O)c2ccc(-c3cccc(C#N)c3Cl)c3c2OCCO3)C1` [Example C0154, (S,Z)-2-Chloro-3-(8-(2-(hydroxymethyl)-4-(methoxyimino)pyrrolidine-1-carbonyl)-2,3-dihydrobenzo[b][1,4]dioxin-5-yl)benzonitrile]: the figures for the IC50 against OTR and against V1aR were 0.00532 µM and 1.61 µM, respectively.

In the case of `CO/N=C1/C[C@@H](CO)N(C(=O)c2ccc(-c3cccc(C#N)c3C)c(F)c2)C1` [Example C0158, (S,Z)-2′-Fluoro-4′-(2-(hydroxymethyl)-4-(methoxyimino)pyrrolidine-1-carbonyl)-2-methyl-[1,1′-biphenyl]-3-carbonitrile], the IC50 at OTR turned out to be 0.0172 µM; at V1aR, 0.52 µM.

As for `CO/N=C1/C[C@@H](CO)N(C(=O)c2cc(F)c(-c3cccc(C#N)c3C)c3c2OCCO3)C1` [Example C0160, 3-(6-Fluoro-8-((S,Z)-2-(hydroxymethyl)-4-(methoxyimino)pyrrolidine-1-carbonyl)-2,3-dihydrobenzo[b][1,4]dioxin-5-yl)-2-methylbenzonitrile], the IC50 was determined as 0.0219 µM on OTR and 0.529 µM against V1aR.

In the case of `CO/N=C1/C[C@@H](CO)N(C(=O)c2cc(F)c(-c3cccc(C#N)c3C)c3c2OCO3)C1` [Example C0162, 3-(5-Fluoro-7-((S,Z)-2-(hydroxymethyl)-4-(methoxyimino)pyrrolidine-1-carbonyl)benzo[d][1,3]dioxol-4-yl)-2-methylbenzonitrile], the values for the IC50 against OTR and at V1aR were 0.00835 µM and 0.747 µM, respectively.

For the molecule `CO/N=C1/C[C@@H](C(C)(C)O)N(C(=O)c2ccc(-c3cccc(C#N)c3C)cc2)C1` [Example C0164, (S,Z)-4′-(2-(2-Hydroxypropan-2-yl)-4-(methoxyimino)pyrrolidine-1-carbonyl)-2-methyl-[1,1′-biphenyl]-3-carbonitrile], the values for the IC50 against OTR and on V1aR were 0.0206 µM and 1.87 µM, respectively.

By clearance is commonly meant a measure of how efficiently the substance is removed, as volume per time. With `CO/N=C1/C[C@@H](CO)N(C(=O)c2ccc(-c3ccccc3C)cc2)C1` [Nolasiban, reference compound], on V1aR, 0.389 µM corresponded to half-maximal inhibition (IC50). The AUC(0-t) in data set [1] (2 mg/kg, IV (2 mpk)) was 3050 ng·h/mL; in data set [1] (5 mg/kg, PO (5 mpk)), 7700 ng·h/mL; in data set [2] (rat, plasma, read-out: Plasma area under the curve AUC0-t) it was 5700 ng·h/mL. In addition, the clearance in data set [1] (2 mg/kg, IV (2 mpk), read-out: Clearance Cl) is 11.1 mL/min/kg. The half-life in data set [1] (2 mg/kg, IV (2 mpk)) was 2.8 h; in data set [1] (5 mg/kg, PO (5 mpk)), 2.71 h. Moreover, the “Brain tissue area under the curve AUC0-t” value in data set [2] turned out to be 18727 ng·h/g. Further, the Kp in data set [2] (rat, brain/plasma, read-out: Brain/plasma exposure ratio) came out at 3.29.
